Results from article PMC5218480 (PLoS ONE, 2017).

Tested on: MV-4-11 cells
Assay: Gene expression microarray analysis (Affymetrix PrimeView) and GSEA
Type: cell-based, human
Set-up: RFU PODN (11730768_x_at) / Fold change /veh PODN (11730768_x_at) / RFU LINC00158 (11744669_a_at) / Fold change /veh LINC00158 (11744669_a_at) / RFU DUSP10 (11751237_a_at) / Fold change /veh DUSP10 (11751237_a_at) / RFU ID3 (11757404_x_at) / Fold change /veh ID3 (11757404_x_at) / RFU PLEKHG5 (11737974_s_at) / Fold change /veh PLEKHG5 (11737974_s_at) / RFU LRRC4B (11730491_at) / Fold change /veh LRRC4B (11730491_at) / RFU GIMAP4 (11747438_a_at) / Fold change /veh GIMAP4 (11747438_a_at) / RFU KRT8 (11758183_x_at) / Fold change /veh KRT8 (11758183_x_at) / RFU CNN1 (11734310_a_at) / Fold change /veh CNN1 (11734310_a_at) / RFU VPS37D (11726825_at) / Fold change /veh VPS37D (11726825_at) / RFU C10orf10 (11716522_x_at) / Fold change /veh C10orf10 (11716522_x_at) / RFU KIR2DL2 /// KIR2DL4 /// KIR2DL5A /// KIR2DL5B /// KIR2DS1 /// KIR2DS2 /// KIR2DS3 /// KIR2DS4 /// KIR3DL3 /// KIR3DL3 /// KIR3DS1 (11738374_at) / Fold change /veh KIR2DL2 /// KIR2DL4 /// KIR2DL5A /// KIR2DL5B /// KIR2DS1 /// KIR2DS2 /// KIR2DS3 /// KIR2DS4 /// KIR3DL3 /// KIR3DL3 /// KIR3DS1 (11738374_at) / RFU C1QL1 (11718748_at) / Fold change /veh C1QL1 (11718748_at) / RFU TMPRSS4 (11747572_a_at) / Fold change /veh TMPRSS4 (11747572_a_at) / RFU HAMP (11756126_x_at) / Fold change /veh HAMP (11756126_x_at) / RFU RNFT2 (11725882_a_at) / Fold change /veh RNFT2 (11725882_a_at) / RFU NR4A2 (11747474_a_at) / Fold change /veh NR4A2 (11747474_a_at) / RFU ABCC12 (11746883_a_at) / Fold change /veh ABCC12 (11746883_a_at) / RFU TMEM136 (11760407_x_at) / Fold change /veh TMEM136 (11760407_x_at) / RFU CLDN22 /// WWC2 (11732394_at) / Fold change /veh CLDN22 /// WWC2 (11732394_at) / RFU HLA-DPB1 (11760878_x_at) / Fold change /veh HLA-DPB1 (11760878_x_at) / RFU SPINT1 (11716480_a_at) / Fold change /veh SPINT1 (11716480_a_at) / RFU GAP43 (11754022_s_at) / Fold change /veh GAP43 (11754022_s_at) / RFU A4GNT (11735810_at) / Fold change /veh A4GNT (11735810_at) / RFU PRB3 (11715151_x_at) / Fold change /veh PRB3 (11715151_x_at) / RFU TUBB4B (11761932_at) / Fold change /veh TUBB4B (11761932_at) / RFU CAPN14 (11732068_a_at) / Fold change /veh CAPN14 (11732068_a_at) / RFU TMCC2 (11721928_a_at) / Fold change /veh TMCC2 (11721928_a_at) / RFU IRGQ (11745062_a_at) / Fold change /veh IRGQ (11745062_a_at) / RFU FAM174B (11720279_a_at) / Fold change /veh FAM174B (11720279_a_at) / RFU TMPRSS4 (11748680_a_at) / Fold change /veh TMPRSS4 (11748680_a_at) / RFU FAM212B (11763350_a_at) / Fold change /veh FAM212B (11763350_a_at) / RFU PLEKHG5 (11743358_a_at) / Fold change /veh PLEKHG5 (11743358_a_at) / RFU ZSCAN30 (11745921_a_at) / Fold change /veh ZSCAN30 (11745921_a_at) / RFU CMKLR1 (11741424_a_at) / Fold change /veh CMKLR1 (11741424_a_at) / RFU LOC101060620 /// MAPK8IP1 (11723275_at) / Fold change /veh LOC101060620 /// MAPK8IP1 (11723275_at) / RFU SPTSSB (11747773_x_at) / Fold change /veh SPTSSB (11747773_x_at) / RFU PRSS12 (11739890_at) / Fold change /veh PRSS12 (11739890_at) / RFU BIN1 (11741810_x_at) / Fold change /veh BIN1 (11741810_x_at) / RFU WNT11 (11732464_a_at) / Fold change /veh WNT11 (11732464_a_at) / RFU C10orf10 (11716521_a_at) / Fold change /veh C10orf10 (11716521_a_at) / RFU C5orf56 (11738089_at) / Fold change /veh C5orf56 (11738089_at) / RFU CYB561 (11721691_x_at) / Fold change /veh CYB561 (11721691_x_at) / RFU ANKRD19P (11752326_a_at) / Fold change /veh ANKRD19P (11752326_a_at) / RFU OR2T12 /// OR2T33 /// OR2T8 (11738714_s_at) / Fold change /veh OR2T12 /// OR2T33 /// OR2T8 (11738714_s_at) / RFU VCAN (11748164_a_at) / Fold change /veh VCAN (11748164_a_at) / RFU JSRP1 (11732532_at) / Fold change /veh JSRP1 (11732532_at) / RFU KRTAP10-11 (11738290_x_at) / Fold change /veh KRTAP10-11 (11738290_x_at) / RFU MYO3A (11730013_a_at) / Fold change /veh MYO3A (11730013_a_at) / RFU EBF3 (11725865_a_at) / Fold change /veh EBF3 (11725865_a_at) / RFU CAMK2N1 (11719241_x_at) / Fold change /veh CAMK2N1 (11719241_x_at) / RFU C5orf56 (11738088_a_at) / Fold change /veh C5orf56 (11738088_a_at) / RFU OLFML3 (11715873_a_at) / Fold change /veh OLFML3 (11715873_a_at) / RFU LOC100653217 /// NTM (11731650_a_at) / Fold change /veh LOC100653217 /// NTM (11731650_a_at) / RFU MAPK11 (11762145_a_at) / Fold change /veh MAPK11 (11762145_a_at) / RFU FIZ1 (11724087_x_at) / Fold change /veh FIZ1 (11724087_x_at) / RFU OASL (11726364_x_at) / Fold change /veh OASL (11726364_x_at) / RFU SOX15 (11748057_x_at) / Fold change /veh SOX15 (11748057_x_at) / RFU CD79A (11719716_a_at) / Fold change /veh CD79A (11719716_a_at) / RFU HIST1H1D (11736915_at) / Fold change /veh HIST1H1D (11736915_at) / RFU CASKIN2 (11723855_a_at) / Fold change /veh CASKIN2 (11723855_a_at) / RFU LOC730098 (11760151_x_at) / Fold change /veh LOC730098 (11760151_x_at) / RFU OR4N2 (11742367_at) / Fold change /veh OR4N2 (11742367_at) / RFU PRRT2 (11749266_a_at) / Fold change /veh PRRT2 (11749266_a_at) / RFU SNX32 (11753110_a_at) / Fold change /veh SNX32 (11753110_a_at) / RFU CDHR5 (11726645_a_at) / Fold change /veh CDHR5 (11726645_a_at) / RFU RCAN1 (11760418_a_at) / Fold change /veh RCAN1 (11760418_a_at) / RFU FAM167A (11723789_a_at) / Fold change /veh FAM167A (11723789_a_at) / RFU FAM26E (11764081_at) / Fold change /veh FAM26E (11764081_at) / RFU ISYNA1 (11749810_s_at) / Fold change /veh ISYNA1 (11749810_s_at) / RFU ACY1 (11761880_at) / Fold change /veh ACY1 (11761880_at) / RFU 11764098_at / Fold change /veh 11764098_at / RFU SAMD14 (11745864_x_at) / Fold change /veh SAMD14 (11745864_x_at) / RFU NPB (11741838_a_at) / Fold change /veh NPB (11741838_a_at) / RFU TMPRSS6 (11731388_a_at) / Fold change /veh TMPRSS6 (11731388_a_at) / RFU KRTAP10-2 (11738614_at) / Fold change /veh KRTAP10-2 (11738614_at) / RFU ARHGAP8 /// PRR5-ARHGAP8 (11727945_x_at) / Fold change /veh ARHGAP8 /// PRR5-ARHGAP8 (11727945_x_at) / RFU KRTAP5-7 /// NADSYN1 (11734609_at) / Fold change /veh KRTAP5-7 /// NADSYN1 (11734609_at) / RFU RASL12 (11751679_a_at) / Fold change /veh RASL12 (11751679_a_at) / RFU CDKN2B (11736163_a_at) / Fold change /veh CDKN2B (11736163_a_at) / RFU PRF1 (11729649_at) / Fold change /veh PRF1 (11729649_at) / RFU, ZNF638 /// ZNF638-IT1 / Fold change vs veh, ZNF638 /// ZNF638-IT1 / RFU, PANK3 / Fold change vs veh, PANK3 / RFU, SH3YL1 / Fold change vs veh, SH3YL1 / RFU, ZEB2 / Fold change vs veh, ZEB2 / RFU, NRIP1 / Fold change vs veh, NRIP1 / RFU, PTTG1IP / Fold change vs veh, PTTG1IP / RFU, CAPN2 / Fold change vs veh, CAPN2 / RFU, MED14 / Fold change vs veh, MED14 / RFU, SNORA58 / Fold change vs veh, SNORA58 / RFU, C1orf63 / Fold change vs veh, C1orf63 / RFU, LRRFIP1 / Fold change vs veh, LRRFIP1 / RFU, NDUFAF7 / Fold change vs veh, NDUFAF7 / RFU, SLC12A2 / Fold change vs veh, SLC12A2 / RFU, IBTK / Fold change vs veh, IBTK / RFU, ESF1 / Fold change vs veh, ESF1 / Fold change vs veh, TMEM50B / RFU, TAOK1 / Fold change vs veh, TAOK1 / RFU, ACBD3 / Fold change vs veh, ACBD3 / RFU, TMA16 / Fold change vs veh, TMA16 / RFU, RWDD3 / Fold change vs veh, RWDD3 / RFU, BCAT1 / Fold change vs veh, BCAT1 / RFU, EDEM3 / Fold change vs veh, EDEM3 / RFU, TMEM33 / Fold change vs veh, TMEM33 / RFU, WDR75 / Fold change vs veh, WDR75 / RFU, AHCTF1 / Fold change vs veh, AHCTF1 / RFU, TFRC / Fold change vs veh, TFRC / RFU, ZDHHC17 / Fold change vs veh, ZDHHC17 / RFU, NOM1 / Fold change vs veh, NOM1 / RFU, ARL8B / Fold change vs veh, ARL8B / RFU, ZBTB11 / Fold change vs veh, ZBTB11 / RFU, TAMM41 / Fold change vs veh, TAMM41 / RFU, KIAA1704 /// LOC100996395 / Fold change vs veh, KIAA1704 /// LOC100996395 / RFU, ING1 / Fold change vs veh, ING1 / RFU, TRMT61B / Fold change vs veh, TRMT61B / RFU, FUBP3 / Fold change vs veh, FUBP3 / RFU, TP53 / Fold change vs veh, TP53 / RFU, TNKS2 / Fold change vs veh, TNKS2 / RFU, ZFP14 / Fold change vs veh, ZFP14 / RFU, ACTR2 / Fold change vs veh, ACTR2 / RFU, PPP3R1 / Fold change vs veh, PPP3R1 / RFU, PIK3R1 / Fold change vs veh, PIK3R1 / RFU, HNRNPA1 / Fold change vs veh, HNRNPA1 / RFU, RNF170 / Fold change vs veh, RNF170 / RFU, ZNF28 / Fold change vs veh, ZNF28 / RFU, RNGTT / Fold change vs veh, RNGTT / RFU, OGT / Fold change vs veh, OGT / RFU, BRD1 / Fold change vs veh, BRD1 / RFU, MARS / Fold change vs veh, MARS / RFU, ZNF655 / Fold change vs veh, ZNF655 / RFU, FAHD1 / Fold change vs veh, FAHD1 / RFU, BDP1 / Fold change vs veh, BDP1 / RFU, LRRCC1 / Fold change vs veh, LRRCC1 / RFU, ARID1A / Fold change vs veh, ARID1A / RFU, ZNF146 / Fold change vs veh, ZNF146 / RFU, ZNF330 / Fold change vs veh, ZNF330 / RFU, GPN3 / Fold change vs veh, GPN3 / RFU, C9orf123 / Fold change vs veh, C9orf123 / RFU, N4BP2L2 / Fold change vs veh, N4BP2L2 / RFU, ARFIP1 / Fold change vs veh, ARFIP1 / RFU, FAM179B / Fold change vs veh, FAM179B / RFU, BCL10 / Fold change vs veh, BCL10 / RFU, UHRF1BP1L / Fold change vs veh, UHRF1BP1L / RFU, BET1 / Fold change vs veh, BET1 / RFU, CNOT2 / Fold change vs veh, CNOT2 / RFU, ZNF268 / Fold change vs veh, ZNF268 / Fold change vs veh, ZNF507 / RFU, DGCR2 / Fold change vs veh, DGCR2 / RFU, WDSUB1 / Fold change vs veh, WDSUB1 / Fold change vs veh, HSP90B1 /// MIR3652 / RFU, ADSS / Fold change vs veh, ADSS / RFU, GK / Fold change vs veh, GK / RFU, ZNF148 / Fold change vs veh, ZNF148 / RFU, TAF9 / Fold change vs veh, TAF9 / RFU, SLC1A5 / Fold change vs veh, SLC1A5 / RFU, SLMO2 / Fold change vs veh, SLMO2 / RFU, ABCC4 / Fold change vs veh, ABCC4 / RFU, LOC101060439 /// RAP1B / Fold change vs veh, LOC101060439 /// RAP1B / RFU, RFX7 / Fold change vs veh, RFX7 / RFU, GTPBP10 / Fold change vs veh, GTPBP10 / RFU, CNEP1R1 / Fold change vs veh, CNEP1R1 / RFU, BIVM-ERCC5 /// ERCC5 / Fold change vs veh, BIVM-ERCC5 /// ERCC5 / RFU, ILF3 / Fold change vs veh, ILF3 / RFU 11762660_at / Fold change /veh 11762660_at / RFU VCAN (11757783_s_at) / Fold change /veh VCAN (11757783_s_at) / RFU DDX43 (11728927_at) / Fold change /veh DDX43 (11728927_at) / RFU KRT8 (11758188_x_at) / Fold change /veh KRT8 (11758188_x_at) / RFU NKD1 (11759106_at) / Fold change /veh NKD1 (11759106_at) / RFU SRD5A1 (11742802_a_at) / Fold change /veh SRD5A1 (11742802_a_at) / RFU TPSAB1 /// TPSB2 (11721975_s_at) / Fold change /veh TPSAB1 /// TPSB2 (11721975_s_at) / RFU GSTM3 (11746129_a_at) / Fold change /veh GSTM3 (11746129_a_at) / RFU IL23R (11737362_x_at) / Fold change /veh IL23R (11737362_x_at) / RFU TMEM51 (11727254_a_at) / Fold change /veh TMEM51 (11727254_a_at) / RFU PIWIL2 (11732686_x_at) / Fold change /veh PIWIL2 (11732686_x_at) / RFU ORM1 (11744905_x_at) / Fold change /veh ORM1 (11744905_x_at) / RFU CCDC152 (11743942_at) / Fold change /veh CCDC152 (11743942_at) / RFU ECM1 (11717891_a_at) / Fold change /veh ECM1 (11717891_a_at) / RFU IL23R (11748794_a_at) / Fold change /veh IL23R (11748794_a_at) / RFU TNFAIP8L3 (11732012_x_at) / Fold change /veh TNFAIP8L3 (11732012_x_at) / RFU MBOAT4 (11741988_at) / Fold change /veh MBOAT4 (11741988_at) / RFU 11764193_at / Fold change /veh 11764193_at / RFU TMEM53 (11763286_at) / Fold change /veh TMEM53 (11763286_at) / RFU MAGEB2 (11727129_at) / Fold change /veh MAGEB2 (11727129_at) / RFU TMEM200A (11744735_a_at) / Fold change /veh TMEM200A (11744735_a_at) / RFU CCDC152 (11751479_a_at) / Fold change /veh CCDC152 (11751479_a_at) / RFU FAM211A (11726209_a_at) / Fold change /veh FAM211A (11726209_a_at) / RFU RGS16 (11746705_a_at) / Fold change /veh RGS16 (11746705_a_at) / RFU VCAN (11755009_s_at) / Fold change /veh VCAN (11755009_s_at) / RFU RHOB (11743442_s_at) / Fold change /veh RHOB (11743442_s_at) / RFU RGS16 (11720943_a_at) / Fold change /veh RGS16 (11720943_a_at) / RFU RGS16 (11720944_at) / Fold change /veh RGS16 (11720944_at) / RFU, VPS4B / Fold change vs veh, VPS4B / RFU, CREB1 / Fold change vs veh, CREB1 / RFU, DNAJC13 / Fold change vs veh, DNAJC13 / RFU, GNAQ / Fold change vs veh, GNAQ / RFU, CDK5R1 / Fold change vs veh, CDK5R1 / RFU, ZRANB3 / Fold change vs veh, ZRANB3 / RFU, CUL4A / Fold change vs veh, CUL4A / RFU, CCNY / Fold change vs veh, CCNY / RFU, UFL1 / Fold change vs veh, UFL1 / RFU, COG3 / Fold change vs veh, COG3 / RFU, DIAPH2 / Fold change vs veh, DIAPH2 / RFU, SKA2 / Fold change vs veh, SKA2 / RFU, AFF3 / Fold change vs veh, AFF3 / RFU, LMF1 / Fold change vs veh, LMF1 / RFU, IPO11 / Fold change vs veh, IPO11 / RFU, DFFB / Fold change vs veh, DFFB / RFU, FOXP1 / Fold change vs veh, FOXP1 / RFU, CARD8 / Fold change vs veh, CARD8 / RFU, STRN3 / Fold change vs veh, STRN3 / RFU, ADK / Fold change vs veh, ADK / RFU, RASSF2 / Fold change vs veh, RASSF2 / RFU, WIPF1 / Fold change vs veh, WIPF1 / RFU, LARP1B / Fold change vs veh, LARP1B / RFU, RASA1 / Fold change vs veh, RASA1 / RFU, RB1 / Fold change vs veh, RB1 / RFU, PPFIA1 / Fold change vs veh, PPFIA1 / RFU, MAT2A / Fold change vs veh, MAT2A / RFU, CCT5 / Fold change vs veh, CCT5 / RFU, WDR92 / Fold change vs veh, WDR92 / RFU, CUX1 / Fold change vs veh, CUX1 / RFU, TTC7A / Fold change vs veh, TTC7A / RFU, TMEM135 / Fold change vs veh, TMEM135 / RFU, DEPTOR / Fold change vs veh, DEPTOR / RFU, CPM / Fold change vs veh, CPM / RFU, DNAJB6 / Fold change vs veh, DNAJB6 / RFU, CACNA2D3 / Fold change vs veh, CACNA2D3 / RFU, DTX4 / Fold change vs veh, DTX4 / RFU, TFCP2 / Fold change vs veh, TFCP2 / RFU, GMCL1 /// GMCL1P1 / Fold change vs veh, GMCL1 /// GMCL1P1 / RFU, AEBP2 / Fold change vs veh, AEBP2 / RFU, SNHG1 /// SNORD22 /// SNORD25 /// SNORD26 /// SNORD27 /// SNORD28 /// SNORD29 /// SNORD31 / Fold change vs veh, SNHG1 /// SNORD22 /// SNORD25 /// SNORD26 /// SNORD27 /// SNORD28 /// SNORD29 /// SNORD31 / Fold change (Aza/veh), C12orf56 (ProbeSet 11735607_a_at) / Fold change (ACY-1035/veh), C12orf56 (ProbeSet 11735607_a_at) / Fold change (Aza/veh), FGFR1OP (ProbeSet 11751329_s_at) / Fold change (ACY-1035/veh), FGFR1OP (ProbeSet 11751329_s_at) / Fold change (Aza/veh), VPS36 (ProbeSet 11739960_a_at) / Fold change (ACY-1035/veh), VPS36 (ProbeSet 11739960_a_at) / RFU SYPL1 (11715823_x_at) / Fold change /veh SYPL1 (11715823_x_at) / RFU IGFBP7 (11715501_s_at) / Fold change /veh IGFBP7 (11715501_s_at) / RFU REEP3 (11722064_at) / Fold change /veh REEP3 (11722064_at) / RFU IGLL1 (11728026_x_at) / Fold change /veh IGLL1 (11728026_x_at): dose or concentration left out as unconfirmed
Details: MV-4-11 cells, 48 hours

In the case of `Nc1ncn([C@@H]2O[C@H](CO)[C@@H](O)[C@H]2O)c(=O)n1` [azacitidine], the “Fold change /veh C5orf56 (11738089_at)” value is reported as 1.15.
